Drawing on patent US7842324B2 (Senomyx, Inc., priority 2005, dated 2010), this text covers EC50 for 28 compounds.

This experiment has as its target T1, hT1R2/hT1R3 sweet receptor expressed in HEK293 cell line (Homo sapiens, UniProt Q7RTX0+Q8TE23).
T1 construct: expressed in transfected cells; host or cells: HEK293 derivative stably expressing Gα15 and hT1R2/hT1R3, clone S-9
T1 sequence (Q8TE23 20-839): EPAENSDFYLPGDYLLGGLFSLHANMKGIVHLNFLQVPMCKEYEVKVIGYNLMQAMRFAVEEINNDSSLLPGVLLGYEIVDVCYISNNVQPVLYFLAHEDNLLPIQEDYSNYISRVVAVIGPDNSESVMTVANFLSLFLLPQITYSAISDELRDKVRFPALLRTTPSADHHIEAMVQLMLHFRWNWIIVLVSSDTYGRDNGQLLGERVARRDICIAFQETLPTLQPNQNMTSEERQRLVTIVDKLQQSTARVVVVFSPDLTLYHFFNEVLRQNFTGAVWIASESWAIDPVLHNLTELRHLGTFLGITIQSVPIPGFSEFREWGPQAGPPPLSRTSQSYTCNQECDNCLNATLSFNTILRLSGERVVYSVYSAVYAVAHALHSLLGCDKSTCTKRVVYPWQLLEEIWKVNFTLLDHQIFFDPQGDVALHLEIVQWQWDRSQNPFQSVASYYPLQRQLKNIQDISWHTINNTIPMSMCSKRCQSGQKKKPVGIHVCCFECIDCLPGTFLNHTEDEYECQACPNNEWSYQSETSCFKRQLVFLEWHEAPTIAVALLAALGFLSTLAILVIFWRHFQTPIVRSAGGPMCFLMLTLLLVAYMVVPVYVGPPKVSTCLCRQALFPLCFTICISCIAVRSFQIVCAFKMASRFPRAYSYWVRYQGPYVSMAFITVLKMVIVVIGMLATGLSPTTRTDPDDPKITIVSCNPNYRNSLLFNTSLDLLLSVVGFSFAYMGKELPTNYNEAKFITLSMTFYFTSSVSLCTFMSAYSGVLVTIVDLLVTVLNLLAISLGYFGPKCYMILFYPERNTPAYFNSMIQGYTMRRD
T1 sequence (Q7RTX0 21-852): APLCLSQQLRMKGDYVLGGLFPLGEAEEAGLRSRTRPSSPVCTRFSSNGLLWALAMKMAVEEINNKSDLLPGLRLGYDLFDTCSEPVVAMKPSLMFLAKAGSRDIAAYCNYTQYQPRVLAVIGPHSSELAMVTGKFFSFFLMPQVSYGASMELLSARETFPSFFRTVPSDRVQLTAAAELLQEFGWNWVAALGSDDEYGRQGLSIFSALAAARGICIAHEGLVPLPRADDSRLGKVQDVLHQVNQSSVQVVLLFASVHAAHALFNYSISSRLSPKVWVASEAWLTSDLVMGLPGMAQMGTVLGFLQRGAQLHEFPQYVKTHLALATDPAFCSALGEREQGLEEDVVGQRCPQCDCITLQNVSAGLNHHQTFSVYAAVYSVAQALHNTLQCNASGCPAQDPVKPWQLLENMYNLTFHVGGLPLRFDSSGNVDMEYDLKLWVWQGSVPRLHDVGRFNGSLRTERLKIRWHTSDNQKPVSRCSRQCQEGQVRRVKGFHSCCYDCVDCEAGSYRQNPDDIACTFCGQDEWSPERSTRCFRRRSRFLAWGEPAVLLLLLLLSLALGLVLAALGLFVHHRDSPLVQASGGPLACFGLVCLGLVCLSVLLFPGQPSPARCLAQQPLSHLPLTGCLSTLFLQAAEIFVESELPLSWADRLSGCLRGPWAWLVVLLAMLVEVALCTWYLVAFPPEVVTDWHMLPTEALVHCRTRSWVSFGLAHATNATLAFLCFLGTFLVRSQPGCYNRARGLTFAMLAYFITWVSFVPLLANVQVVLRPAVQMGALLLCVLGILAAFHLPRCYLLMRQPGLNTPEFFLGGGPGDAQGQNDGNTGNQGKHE
Kind of experiment: In vitro hT1R2/hT1R3-HEK293 taste receptor activation assay (FLIPR). The format is cell-based. Particulars: read-out: EC50 for activation of a hT1R2/hT1R3 sweet receptor expressed in HEK293 cell line. As for the experimental part:
An HEK293 cell line derivative (Chandrashekar et al., Cell (2000) 100:703-711) that stably expresses Gα15 and hT1R2/hT1R3 (Li et al., Proc Natl Acad Sci USA (2002) 99:4692-4696), see also PCT Publication No. WO 03/001876 A2) was used to identify compounds with sweet taste enhancing properties.
Compounds covered in this document were initially selected based on their activity on the hT1R2/hT1R3-HEK293-Gα15 cell line (Li et al. vide supra). Activity was determined using an automated fluorometric imaging assay on a FLIPR instrument ([…], Molecular Devices, Sunnyvale, Calif.) (designated FLIPR assay). Cells from one clone (designated S-9 cells) were seeded into 384-well plates (at approximately 50,000 cells per well) in a medium containing DMEM Low Glucose (Invitrogen, Carlsbad, Calif.), 10% dialyzed fetal bovine serum (Invitrogen, Carlsbad, Calif.), 100 Units/ml Penicillin G, and 100 μg/ml Streptomycin (Invitrogen, Carlsbad, Calif.) (Li et al. vide supra) see also PCT Publication No. WO 03/001876 A2). S-9 cells were grown for 24 hours at 37° C. S-9 cells were then loaded with the calcium dye Fluo-3AM (Molecular Probes, Eugene, Oreg.), 4 μM in a phosphate buffered saline (D-PBS) (Invitrogen, Carlsbad, Calif.), for 1 hour at room temperature. After replacement with 25 μl D-PBS, stimulation was performed in the FLIPR instrument and at room temperature by the addition of 25 μl D-PBS supplemented with different stimuli at concentrations corresponding to twice the desired final level. Receptor activity was quantified by determining the maximal fluorescence increases (using a 480 nm excitation and 535 nm emission) after normalization to basal fluorescence intensity measured before stimulation.
For dose-responses analysis, stimuli were presented in duplicates at 10 different concentrations ranging from 60 nM to 30 μM. Activities were normalized to the response obtained with 400 mM D-fructose, a concentration that elicits maximum receptor response. EC50s were determined using a non-linear regression algorithm (using a Senomyx, Inc. software), where the Hill slope, bottom asymptotes and top asymptotes were allow to vary. Identical results were obtained when analyzing the dose-response data using commercially available software for non-linear regression analysis such as GraphPad PRISM (San Diego, Calif.).

Molecules are shown by their SMILES.

Turning to `CC(C)CNC(=O)C(C)(C)c1ccc(-c2ccoc2)cc1` [Compound 1, 2-(4-(Furan-3-yl)phenyl)-N-isobutyl-2-methylpropanamide], the EC50 was 0.34 µM.

In the case of `CC(C)CNC(=O)C(C)c1ccc(-c2ccccc2)c(F)c1` (stereo not shown) [Compound 3, 2-(2-fluorobiphenyl-4-yl)-N-isobutylpropanamide], the EC50 amounted to 2.8 µM.

Regarding `CC(C(=O)NCc1ccco1)c1ccc(-c2ccccc2)c(F)c1` (stereo not shown) [Compound 4, 2-(2-fluorobiphenyl-4-yl)-N-(furan-2-ylmethyl)propanamide], the EC50 is 4.55 µM.

Consider `COCCNC(=O)C(C)c1ccc(-c2ccccc2)c(F)c1` (stereo not shown) [Compound 5, 2-(2-fluorobiphenyl-4-yl)-N-(2-methoxyethyl)propanamide], for which the EC50 stood at 6.5 µM.

As to `CCC(COC)NC(=O)C(C)(C)c1ccc(-c2ccccc2)c(F)c1` (stereo not shown) [Compound 6, 2-(2-fluorobiphenyl-4-yl)-N-(1-methoxybutan-2-yl)-2-methylpropanamide], the EC50 was determined as 3.81 µM.

Take `CC(C)CNC(=O)C(C)(C)c1ccc(-c2ccsc2)cc1` [Compound 7, N-isobutyl-2-methyl-2-(4-(thiophen-3-yl)phenyl)propanamide]: the EC50 came out at 1.24 µM.

In the case of `CC(C)CNC(=O)C(C)(C)c1ccc(-c2cccc([N+](=O)[O-])c2)cc1` [Compound 8, N-isobutyl-2-methyl-2-(3′-nitrobiphenyl-4-yl)propanamide], the EC50 was 0.4 µM.

For the compound `CC(C)CNC(=O)C(C)(C)c1ccc(-c2cccc(C#N)c2)cc1` [Compound 9, 2-(3′-cyanobiphenyl-4-yl)-N-isobutyl-2-methylpropanamide], the EC50 was determined as 0.2 µM.

For the compound `COC(=O)c1cccc(-c2ccc(C(C)(C)C(=O)NCC(C)C)cc2)c1` [Compound 10, Methyl 4′-(1-(isobutylamino)-2-methyl-1-oxopropan-2-yl)biphenyl-3-carboxylate], the EC50 was determined as 0.9 µM.

As to `CC(C)CNC(=O)C(C)(C)c1ccc(-c2cccc(O)c2)cc1` [Compound 11, 2-(3′-hydroxybiphenyl-4-yl)-N-isobutyl-2-methylpropanamide], the EC50 was determined as 1.9 µM.

Regarding `Cc1ccccc1-c1ccc(C(C)(C)C(=O)NCC(C)C)cc1` [Compound 12, N-isobutyl-2-methyl-2-(2′-methylbiphenyl-4-yl)propanamide], the EC50 came out at 1.9 µM.

Turning to `CC(C)CNC(=O)C(C)(C)c1ccc(-c2ccccc2N)cc1` [Compound 13, 2-(2′-aminobiphenyl-4-yl)-N-isobutyl-2-methylpropanamide], the EC50 is 2.2 µM.

As for `CC(C)CNC(=O)C(C)(C)c1ccc(-c2ccccc2C#N)cc1` [Compound 14, 2-(2′-cyanobiphenyl-4-yl)-N-isobutyl-2-methylpropanamide], the EC50 worked out at 1.9 µM.

Consider `Cc1cccc(-c2ccc(C(C)(C)C(=O)NCC(C)C)cc2)c1` [Compound 15, N-isobutyl-2-methyl-2-(3′-methylbiphenyl-4-yl)propanamide], for which the EC50 amounted to 3 µM.

For the compound `CCOC(=O)c1cccc(-c2ccc(C(C)(C)C(=O)NCC(C)C)cc2)c1` [Compound 16, Ethyl 4′-(1-(isobutylamino)-2-methyl-1-oxopropan-2-yl)biphenyl-3-carboxylate], the EC50 came to 2.6 µM.

In the case of `CC(C)CNC(=O)C(C)(C)c1ccc(-c2cccc(C(=O)N(C)C)c2)cc1` [Compound 17, 2-(3′-((dimethylamino)carbonyl)biphenyl-4-yl)-N-isobutyl-2-methylpropanamide], the EC50 amounted to 2.7 µM.

On to `CC(C)CNC(=O)C(C)(C)c1ccc(-c2cccc(OC(C)C)c2)cc1` [Compound 18, N-isobutyl-2-(3′-isopropoxybiphenyl-4-yl)-2-methylpropanamide], for which the EC50 was found to be 4.2 µM.

As for `COc1cccc(-c2ccc(C(C)(C)C(=O)NCC(C)C)cc2)c1` [Compound 19, N-isobutyl-2-(3′-methoxybiphenyl-4-yl)-2-methylpropanamide], the EC50 was 4.3 µM.

In the case of `CCC(CC)NC(=O)C(C)(C)c1ccc(-c2cncc(C#N)c2)cc1` [Compound 21, 2-(4-(5-cyanopyridin-3-yl)phenyl)-2-methyl-N-(pentan-3-yl)propanamide], the EC50 stood at 0.07 µM.

As for `CC(C)[C@@H](C)NC(=O)C(C)(C)c1ccc(-c2cncc(C#N)c2)cc1` [Compound 22], the EC50 is 0.14 µM.

For `CC(C)CNC(=O)C(NC(=O)OC(C)(C)C)c1ccc(-c2ccccc2)cc1` (stereo not shown) [Compound 24, tert-butyl 1-(biphenyl-4-yl)-2-(isobutylamino)-2-oxoethylcarbamate], the EC50 was 7.54 µM.

Take `CCOCc1cncc(-c2ccc(C(C)(C)C(=O)NCC(C)C)cc2)c1` [Compound 26, 2-(4-(5-(ethoxymethyl)pyridin-3-yl)phenyl)-N-isobutyl-2-methylpropanamide]: the EC50 is 0.26 µM.

Turning to `CC(C)CNC(=O)C(C)(C)c1ccc(-n2cccc2)cc1` [Compound 28, 2-(4-(1H-pyrrol-1-yl)phenyl)-N-isobutyl-2-methylpropanamide], the EC50 was found to be 0.35 µM.

On to `COCc1cncc(-c2ccc(C(C)(C)C(=O)NCC(C)C)cc2)n1` [Compound 29, N-isobutyl-2-(4-(6-(methoxymethyl)pyrazin-2-yl)phenyl)-2-methylpropanamide], for which the EC50 was 0.26 µM.

`CC(C)CNC(=O)C(C)(C)c1cnn(-c2ccccc2)c1` [Compound 31, N-isobutyl-2-methyl-2-(1-phenyl-1H-pyrazol-4-yl)propanamide]: the EC50 came to 14.9 µM.

As for `CC(C)CNC(=O)C(C)(C)c1cc(-c2ccccc2)no1` [Compound 33, N-isobutyl-2-methyl-2-(3-phenylisoxazol-5-yl)propanamide], the EC50 is 6.75 µM.

Take `Cc1cscc1-c1ccc(C(C)(C)C(=O)NCC(C)C)cc1O` [Compound 35, 2-(3-hydroxy-4-(4-methylthiophen-3-yl)phenyl)-N-isobutyl-2-methylpropanamide]: the EC50 was 1.04 µM.

Regarding `CC(C)CNC(=O)C(C)(C)c1ccc(-c2ccccc2CO)cc1` [Compound 36, 2-(2′-(hydroxymethyl)biphenyl-4-yl)-N-isobutyl-2-methylpropanamide], the EC50 amounted to 1.05 µM.
